Data: patent US6372883B1, “Antiviral medicaments” (Hoffmann-La Roche Inc., priority 1998, dated 2002)

target: HCV proteinase (MBP-NS3″Gly 12-NS4A enzyme); test: HCV proteinase inhibition: cleavage of quenched fluorescence substrate NS4A/B.F peptide by MBP-NS3″Gly 12-NS4A enzyme; assay type: biochemical; details: 10 μM NS4A/B.F peptide, pH 8.5, 10% DMSO, room temperature for 60 minutes; IC50 by manual graph analysis
Excerpt: As mentioned earlier, the compounds of formula I and salts of acidic compounds of formula I with bases are inhibitors of proteases of viral origin.
Construction of Plasmid for the Expression of MBP-NS3″Gly 12-NS4A Enzyme in E. coli
The nucleotide sequence of this expression plasmid is given in SEQ ID NO:1 appended hereto and the amino acid sequence of its expression product is given in SEQ ID NO:2 appended hereto. It is based on the pMAL®-c2 vector supplied by New England Biolabs, Inc. (32 Tozer Rd., Beverly, Mass., USA). The principle of the construction was to create an in-frame fusion of the maltose binding protein (MBP) gene supplied by the pMAL-c2 vector, and sequences of the HCV genome necessary for NS3 proteinase activity. These HCV sequences were inserted between the EcoRI and HindIII sites of the pMAL-c2 polylinker (positions 2695 and 3556 respectively of the sequence given in SEQ ID NO:1).
HCV sequences were derived from plasmids pDS 3348-4045 and pBFK 3348-6062, described by Bartenschlager et al, 1993 (Journal of Virology, 67, 3835-3844). Regions encompassing the NS3 proteinase domain (amino acids 1007-1219) and the NS4A domain (amino acids 1658-1711) were isolated and inserted into the pMAL-c2 vector using standard recombinant DNA techniques, including the PCR amplification of required sequences. Between the NS3 and NS4A domains, a linker region was constructed using synthetic oligonucleotides (positions 3343-3390; amino acids 606-621). The resulting plasmid was used to transform E. coli (strain MC1061) cells and expression of the MBP-NS3″Gly 12-NS4A enzyme was induced as described below.
Protein Expression and Purification
E. coli (strain MC1061) cells transformed with the foregoing plasmid were grown in Luria broth containing ampicillin (100 μg/ml) at 37° C. The cells were grown until an optical density of 0.5 at 600 nm had been reached and enzyme expression was then induced by adding 1 mM isopropylthiogalactoside and incubating at 37° C. for a further 3 hours. The cells were harvested by centrifugation and stored at −80° C.
A pellet from […] bacterial culture was resuspended in E.coli lysis buffer (20 mM Tris HCl, pH 7.5, containing 150 mM NaCl, 1 mM EDTA and 10 mM dithiothreitol) and cell lysis was achieved by two passages through a French Pressure cell. The clear supernatant obtained by centrifugation (18000 g, 30 minutes) was then applied to an amylose resin column (4×1 cm) (New England Biolabs) which had been equilibrated with ice-cold 50 mM Tris HCl, pH 8.5, containing 200 mM NaCl, 1 mM dithiothreitol and 5% glycerol. The column was washed thoroughly with the equilibration buffer and bound protein was eluted using the equilibration buffer containing 10 mM maltose. Fractions of 1 ml were collected, with fractions containing the enzyme being pooled and stored at −80° C. Enzyme concentration was assayed by the method of M. B. Bradford, Analytical Biochemistry, 1976, vol. 72, p.248.
Compounds of formula I (routinely prepared as stock solutions in DMSO) were assayed for their ability to inhibit the cleavage of a quenched fluorescence substrate [NS4A/B.F peptide (N-[4-[4-(dimethylamino)phenylazo]benzoyl]-L-α-aspartyl-L-(α-glutamyl-L-methionyl-L-α-glutamyl-L-α-glutamyl-L-cysteinyl-L-alanyl-L-seryl-L-histidyl-N5-[2-(5-sulpho-1-naphthylamino)ethyl]-L-glutamin-amide); Wilkinson et al, Society for General Microbiology Meeting, University of Warwick, England, Mar. 28, 1996] based on the NS4A/4B cleavage site by enzyme MBP-NS3{acute over (ii)}Gly 12-NS4A in microtitre plates as follows:
The enzyme (0.4-0.6 μg) was added to a mixture (200 μl final volume) containing 50 mM Tris HCl, pH 8.5, with 1 mM NaCl, 0.1 mM EDTA, 1 mM dithiothreitol, 0.1% Triton X-100, 10 μM NS4A/B.F peptide and the test compound of formula I prepared as a stock solution in DMSO and added to give a 10% final concentration of DMSO. […]

Going from “2(RS)-[[N-[N-[N-[N-[N-(3-Carboxypropionyl)-L-α-aspartyl-L-α-glutamyl]-2-methyl-L-phenylalanyl]-3-methyl-L-valyl]-O-benzyl-L-tyrosyl]amino]-4,4,4-trifluorobutyraldehyde” to “2(RS)-[[N-[N-[N-[N-[N-(3-Carboxypropionyl)-L-α-aspartyl-O-benzyl-L-α-glutamyl]-2-methyl-L-phenylalanyl]-3-methyl-L-valyl]-L-leucyl]amino]-4,4,4-trifluorobutyraldehyde”, the IC50 falls from 200 nM to 110 nM (1.8-fold).

Going from “2(RS)-[[N-[N-[N-[N2-(N-Acetyl-L-tyrosyl)-N6-nitro-L-arginyl]-2-methyl-L-phenylalanyl]-3-methyl-L-valyl]-L-leucyl]amino]-4,4,4-trifluorobutyraldehyde” to `Cc1ccccc1C[C@H](NC(=O)[C@H](NC(=O)[C@H](CS)NC(=O)CCC(=O)O)C(C)C)C(=O)N[C@H](C(=O)N[C@@H](CC(C)C)C(=O)NC(C=O)CC(F)(F)F)C(C)(C)C` (mixture of isomers) [D, 2(RS)-[[N-[N-[N-[N-[N-(3-Carboxypropionyl)-L-cysteinyl]-D-valyl]-2-methyl-L-phenylalanyl]-3-methyl-L-valyl]-L-leucyl]amino]-4,4,4-trifluorobutyraldehyde], the IC50 rises from 44 nM to 140 nM (3.2-fold).

First: 2(RS)-[[N-[N-[N-[N-[N-(9-Hydroxy-9-fluorenyl)carbonyl]-L-seryl]-O-benzyl-D-seryl]-2-methyl-L-phenylalanyl]-3-methyl-L-valyl]-L-leucyl]-amino]-4,4,4-trifluorobutyraldehyde
Second: 1(RS)-[[N-[N-[N-[N-[N-(4-Acetamidobutyryl)-L-α-aspartyl-L-α-glutamyl]-2-methyl-L-phenylalanyl]-3-methyl-L-valyl]-L-leucyl]-amino]propylboronic acid
The IC50 of the first is 12-fold lower: 20 nM for the first, 230 nM for the second. The first is the more potent here.
